Measured values from ChEMBL document CHEMBL2364335, “Structure-activity relationship data for chemical series of achiral agonists of the ghrelin (growth hormone secretagogue) receptor (Supplementary Bioactivity Data for publication CHEMBL1140573)”.

Each compound was assayed against Growth hormone secretagogue receptor type 1 (Homo sapiens, UniProt Q92847) (assay: SUPPLEMENTARY: Agonist activity at GSHR by FLIPR assay. Same assay as CHEMBL941945).
Assay type: functional

Sequence of Growth hormone secretagogue receptor type 1 (Q92847 whole entry): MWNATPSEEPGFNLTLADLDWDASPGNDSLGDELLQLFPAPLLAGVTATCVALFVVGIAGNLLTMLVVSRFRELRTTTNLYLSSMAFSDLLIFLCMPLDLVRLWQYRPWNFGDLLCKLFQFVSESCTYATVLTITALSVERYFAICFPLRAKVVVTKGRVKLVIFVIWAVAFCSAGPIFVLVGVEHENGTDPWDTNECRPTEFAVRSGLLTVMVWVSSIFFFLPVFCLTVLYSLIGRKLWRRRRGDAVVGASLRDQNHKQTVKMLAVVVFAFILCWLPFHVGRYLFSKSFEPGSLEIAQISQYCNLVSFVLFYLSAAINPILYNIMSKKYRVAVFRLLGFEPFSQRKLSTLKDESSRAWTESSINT

First: CCOc1ccc(N2C[C@@H](C)N[C@@H](C)C2)cc1NS(=O)(=O)c1ccc(-c2cccs2)cc1
Second: C[C@@H]1CN(c2ccc(F)c(NS(=O)(=O)c3ccc(-c4cccs4)cc3)c2)C[C@H](C)N1
The EC50 of the first is 2.5-fold higher: 0.0126 µM for the first, 0.00501 µM for the second. The second is the more potent here.

Going from `COc1ccc(NS(=O)(=O)c2cccc3ccccc23)cc1N1C[C@@H](C)N[C@@H](C)C1` to `Cc1ccc(N2C[C@@H](C)N[C@@H](C)C2)cc1NS(=O)(=O)c1cccc2ccccc12`, the EC50 falls from 0.0316 µM to 0.02 µM (1.6-fold). The second is the more potent here.

Going from `C[C@@H]1CN(c2ccc(O)c(NS(=O)(=O)c3ccc(-c4ccco4)cc3)c2)C[C@H](C)N1` to `C[C@@H]1CN(c2ccc(Cl)c(NS(=O)(=O)c3ccc(-c4ccco4)cc3)c2)C[C@H](C)N1`, the EC50 falls from 0.0158 µM to 0.00158 µM (10-fold).

First: COc1ccc(N2C[C@@H](C)N[C@@H](C)C2)cc1NS(=O)(=O)c1ccc2c(Cl)cccc2c1
Second: COc1ccc(N2C[C@@H](C)N[C@@H](C)C2)cc1NS(=O)(=O)c1cccc2cccc(Cl)c12
The EC50 of the first is 6.3-fold lower: 0.00158 µM for the first, 0.01 µM for the second.

First: COc1ccc(NS(=O)(=O)c2ccc(-c3cccs3)cc2C)cc1N1C[C@@H](C)N[C@@H](C)C1
Second: COc1cc(-c2cccs2)ccc1S(=O)(=O)Nc1cccc(N2C[C@@H](C)N[C@@H](C)C2)c1
The EC50 of the first is 20-fold lower: 0.001 µM for the first, 0.02 µM for the second.

Going from `COc1ccc(N2C[C@@H](C)N[C@@H](C)C2)cc1NS(=O)(=O)c1ccc(Br)s1` to `COc1ccc(N2C[C@@H](C)N[C@@H](C)C2)cc1NS(=O)(=O)c1ccc(-c2cccs2)s1`, the EC50 falls from 0.126 µM to 0.00398 µM (32-fold). The second is the more potent here.

Going from `COc1ccc(N2C[C@@H](C)N[C@@H](C)C2)cc1NS(=O)(=O)c1ccc(-c2ccc(C)s2)c(C)c1` to `COc1ccc(N2C[C@@H](C)N[C@@H](C)C2)cc1NS(=O)(=O)c1ccc(-c2ccc(C)s2)cc1F`, the EC50 falls from 0.00631 µM to 0.00398 µM (1.6-fold).

Going from `COc1ccc(N2C[C@@H](C)N[C@@H](C)C2)cc1NS(=O)(=O)c1ccc(-c2cccc(Cl)c2)cc1` to `COCc1cccc(-c2ccc(S(=O)(=O)Nc3cc(N4C[C@@H](C)N[C@@H](C)C4)ccc3OC)cc2)c1`, the EC50 rises from 0.00251 µM to 0.00631 µM (2.5-fold). The first is the more potent here.

Compared with `COc1ccc(N2C[C@@H](C)N[C@@H](C)C2)cc1NS(=O)(=O)c1cccc(-c2cccs2)c1`, `COc1ccc(N2C[C@@H](C)N[C@@H](C)C2)cc1NS(=O)(=O)c1ccc(-c2cccnc2)s1` is 6.3-fold higher in EC50: 0.0158 µM for the first, 0.1 µM for the second.

First: Cc1ccc(-c2ccc(S(=O)(=O)Nc3cc(N4C[C@@H](C)N[C@@H](C)C4)ccc3O)cc2F)o1
Second: Cc1ccc(-c2ccc(S(=O)(=O)Nc3cc(N4C[C@@H](C)N[C@@H](C)C4)ccc3O)cc2)o1
The EC50 of the first is 1.6-fold lower: 0.00316 µM for the first, 0.00501 µM for the second.

Going from `COc1cc(Br)ccc1S(=O)(=O)Nc1cc(N2C[C@@H](C)N[C@@H](C)C2)ccc1F` to `COc1ccc(NS(=O)(=O)c2ccc(Br)cc2C)cc1N1C[C@@H](C)N[C@@H](C)C1`, the EC50 falls from 0.1 µM to 0.0398 µM (2.5-fold). The second is the more potent here.

First: C[C@@H]1CN(c2cccc(NS(=O)(=O)c3ccc(-c4ccc(Cl)s4)cc3)c2)C[C@H](C)N1
Second: C[C@@H]1CN(c2cccc(NS(=O)(=O)c3ccc4ccccc4c3)c2)C[C@H](C)N1
The EC50 of the first is 1.6-fold higher: 0.0251 µM for the first, 0.0158 µM for the second. The second is the more potent here.

`COc1ccc(N2C[C@@H](C)N[C@@H](C)C2)cc1NS(=O)(=O)c1ccc(-c2cccc(C)n2)cc1F` and `COc1ccc(N2C[C@@H](C)N[C@@H](C)C2)cc1NS(=O)(=O)c1ccc(-c2cccc(C)n2)cc1C` are within 1.5-fold of each other in EC50: 0.00794 µM for the first, 0.00631 µM for the second.

Compared with `COc1ccc(N2CCN[C@H](C)C2)cc1NS(=O)(=O)c1ccc(-c2cccs2)cc1`, `COc1ccc(N2C[C@@H](C)N[C@@H](C)C2)cc1NS(=O)(=O)c1ccc(-c2cccn2C)cc1` is 1.6-fold lower in EC50: 0.0316 µM for the first, 0.02 µM for the second. The second is the more potent here.

First: COc1ccc(NS(=O)(=O)c2ccc(-c3ccc(F)cc3)cc2)cc1N1C[C@@H](C)N[C@@H](C)C1
Second: COc1ccc(NS(=O)(=O)c2ccc(-c3ccc(C)cc3)cc2)cc1N1C[C@@H](C)N[C@@H](C)C1
The EC50 of the first is 4-fold lower: 0.02 µM for the first, 0.0794 µM for the second. The first is the more potent here.

`COc1ccc(N2C[C@@H](C)N[C@@H](C)C2)cc1NS(=O)(=O)c1ccc(-c2ccsc2)cc1C` and `COc1ccc(N2C[C@@H](C)N[C@@H](C)C2)cc1NS(=O)(=O)c1ccc(-c2ccsc2)s1` are the same in EC50: 0.00501 µM for the first, 0.00501 µM for the second.

First: COc1ccc(N2C[C@@H](C)N[C@@H](C)C2)cc1NS(=O)(=O)c1ccc(Cl)c2ccccc12
Second: COc1ccc(N2C[C@@H](C)N[C@@H](C)C2)cc1NS(=O)(=O)c1ccc(-c2ccccc2Cl)s1
The EC50 of the first is 20-fold higher: 0.0501 µM for the first, 0.00251 µM for the second. The second is the more potent here.

`COc1ccc(NS(=O)(=O)c2ccc(Cl)c(Cl)c2)cc1N1C[C@@H](C)N[C@@H](C)C1` and `COc1ccc(N2C[C@@H](C)N[C@@H](C)C2)cc1NS(=O)(=O)c1ccc(Cl)c(Cl)c1` are within 1.5-fold of each other in EC50: 0.0631 µM for the first, 0.0501 µM for the second.

Going from `COc1ccc(NS(=O)(=O)c2ccc(-n3cccn3)cc2)cc1N1C[C@@H](C)N[C@@H](C)C1` to `COc1ccc(NS(=O)(=O)c2ccc(-c3cnco3)cc2)cc1N1C[C@@H](C)N[C@@H](C)C1`, the EC50 rises from 0.00631 µM to 0.0398 µM (6.3-fold).

Going from `C[C@@H]1CN(c2cc(NS(=O)(=O)c3ccc(-c4cccs4)cc3)ccc2C#N)C[C@H](C)N1` to `COc1ccc(NS(=O)(=O)c2ccc(-c3cc(C)cs3)cc2)cc1N1C[C@@H](C)N[C@@H](C)C1`, the EC50 falls from 0.1 µM to 0.00126 µM (79-fold).

Compared with `C[C@@H]1CN(c2cccc(NS(=O)(=O)c3cccc(Cl)c3Cl)c2)C[C@H](C)N1`, `COc1ccc(N2C[C@@H](C)N[C@@H](C)C2)cc1NS(=O)(=O)c1ccc(-c2ccco2)cc1Cl` is 40-fold lower in EC50: 0.02 µM for the first, 0.000501 µM for the second.

First: COc1ccc(NS(=O)(=O)c2ccc(-c3ccoc3)s2)cc1N1C[C@@H](C)N[C@@H](C)C1
Second: COc1ccc(NS(=O)(=O)c2ccc(-c3ccc(F)cc3)s2)cc1N1C[C@@H](C)N[C@@H](C)C1
The EC50 of the first is 7.9-fold lower: 0.0126 µM for the first, 0.1 µM for the second.

Compared with `COc1ccc(N2C[C@@H](C)N[C@@H](C)C2)cc1NS(=O)(=O)c1ccc(-c2ccc(C)o2)cn1`, `COc1ccc(N2C[C@@H](C)N[C@@H](C)C2)cc1NS(=O)(=O)c1ccc(-c2ccc(C)o2)cc1Cl` is 10-fold lower in EC50: 0.00316 µM for the first, 0.000316 µM for the second. The second is the more potent here.

Going from `COc1ccc(N2C[C@@H](C)N[C@@H](C)C2)cc1NS(=O)(=O)c1cc(F)c(-c2ccco2)cc1F` to `COc1ccc(N2C[C@@H](C)N[C@@H](C)C2)cc1NS(=O)(=O)c1ccc(-c2ccco2)cc1F`, the EC50 falls from 0.0158 µM to 0.00158 µM (10-fold). The second is the more potent here.

First: COc1ccc(N2C[C@@H](C)N[C@@H](C)C2)cc1NS(=O)(=O)c1cc(C)c(-c2ccccc2F)s1
Second: COc1ccc(N2C[C@@H](C)N[C@@H](C)C2)cc1NS(=O)(=O)c1ccc(-c2ccccc2C)s1
The EC50 of the first is 2.5-fold higher: 0.0631 µM for the first, 0.0251 µM for the second. The second is the more potent here.

Going from `C[C@@H]1CN(c2ccc(F)c(NS(=O)(=O)c3ccc(-c4cccs4)c(F)c3)c2)C[C@H](C)N1` to `C[C@@H]1CN(c2ccc(F)c(NS(=O)(=O)c3ccc(-c4cccs4)cc3F)c2)C[C@H](C)N1`, the EC50 rises from 0.01 µM to 0.02 µM (2-fold). The first is the more potent here.

First: COc1ccc(Oc2cccc(S(=O)(=O)Nc3cc(N4C[C@@H](C)N[C@@H](C)C4)ccc3OC)c2)cc1
Second: COc1ccc(N2C[C@@H](C)N[C@@H](C)C2)cc1NS(=O)(=O)c1ccc(-c2cccc(F)c2F)cc1
The EC50 of the first is 3.2-fold higher: 0.1 µM for the first, 0.0316 µM for the second. The second is the more potent here.

`C[C@@H]1CN(c2ccc(O)c(NS(=O)(=O)c3ccc(-c4ccccn4)s3)c2)C[C@H](C)N1` and `COc1ccc(N2C[C@@H](C)N[C@@H](C)C2)cc1NS(=O)(=O)c1ccc(-c2csnn2)s1` are the same in EC50: 0.0251 µM for the first, 0.0251 µM for the second.

First: COc1ccc(NS(=O)(=O)c2ccc(-c3ccc(C)s3)s2)cc1N1C[C@@H](C)N[C@@H](C)C1
Second: COc1ccc(N2C[C@@H](C)N[C@@H](C)C2)cc1NS(=O)(=O)c1ccc(-c2cnccc2OC)s1
The EC50 of the first is 20-fold lower: 0.00158 µM for the first, 0.0316 µM for the second. The first is the more potent here.

First: COc1ccc(N2C[C@@H](C)N[C@@H](C)C2)nc1NS(=O)(=O)c1ccc(-c2ccoc2)cc1Cl
Second: COc1ccc(NS(=O)(=O)c2ccc(Oc3ccccc3)cc2)cc1N1C[C@@H](C)N[C@@H](C)C1
The EC50 of the first is 5-fold lower: 0.0251 µM for the first, 0.126 µM for the second.

With `Cc1ccc(N2C[C@@H](C)N[C@@H](C)C2)cc1NS(=O)(=O)c1ccc2ccccc2c1` the EC50 was 0.00501 µM.
